# According to PubChem BioAssay AID1963853 (Molecular Pharmacology Branch, DTP, NCI, 2024):
# System: 266295-075-R-J1-PDC spheroid viability
# Assay: Anticancer human tumor 266295-075-R-J1-PDC patient-derived head and neck squamous carcinoma cell line growth inhibition [POLQ]
# Conditions: spheroids with HUVEC and MSC; for IC50: curve of first compound; for viability, T/C: stronger effect = lower value
# Summary of the method: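 Growth inhibition in 3D: complex spheroids (tumor PDC, HUVEC, MSC) treated with POLQ inhibitor combinations; where Cmax unknown, highest tested concentration 10 microM, except SN-38 at 1 microM.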
# [1] = second compound 0.0316 µM, first compound 0.0316 µM
# [2] = second compound 0.0316 µM, first compound 0.1 µM
# [3] = second compound 0.0316 µM, first compound 0.316 µM
# [4] = second compound 0.0316 µM, first compound 1 µM
# [5] = second compound 0.1 µM, first compound 0.0316 µM
# [6] = second compound 0.1 µM, first compound 0.1 µM
# [7] = second compound 0.1 µM, first compound 0.316 µM
# [8] = second compound 0.1 µM, first compound 1 µM
# [9] = second compound 0.316 µM, first compound 0.0316 µM
# [10] = second compound 0.316 µM, first compound 0.1 µM
# [11] = second compound 0.316 µM, first compound 0.316 µM
# [12] = second compound 0.316 µM, first compound 1 µM
# [13] = second compound 1 µM, first compound 0.0316 µM
# [14] = second compound 1 µM, first compound 0.1 µM
# [15] = second compound 1 µM, first compound 0.316 µM
# [16] = second compound 1 µM, first compound 1 µM
# [17] = second compound 3.16 µM, first compound 0.0316 µM
# [18] = second compound 3.16 µM, first compound 0.1 µM
# [19] = second compound 3.16 µM, first compound 0.316 µM
# [20] = second compound 3.16 µM, first compound 1 µM
# [21] = second compound 10 µM, first compound 0.0316 µM
# [22] = second compound 10 µM, first compound 0.1 µM
# [23] = second compound 10 µM, first compound 0.316 µM
# [24] = second compound 10 µM, first compound 1 µM
# 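Also: spheroids exposed to compounds for seven days before readout.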
compound,measurement,setting,value
C=CCn1c(=O)c2cnc(Nc3ccc(N4CCN(C)CC4)cc3)nc2n1-c1cccc(C(C)(C)O)n1 + COC1C(OC(N)=O)C(O)C(Oc2ccc3c(O)c(NC(=O)c4ccc(O)c(CC=C(C)C)c4)c(=O)oc3c2C)OC1(C)C,IC50,second compound 0.0316 µM,> 1 µM
same,IC50,second compound 0.1 µM,> 1 µM
same,IC50,second compound 0.316 µM,> 1 µM
same,IC50,second compound 1 µM,> 1 µM
same,IC50,second compound 3.16 µM,> 1 µM
same,IC50,second compound 10 µM,> 1 µM
same,"viability, T/C","second compound 0.0316 µM, first compound 0.00316 µM",106%
same,"viability, T/C","second compound 0.0316 µM, first compound 0.01 µM",111%
same,"viability, T/C",[1],103%
same,"viability, T/C",[2],102%
same,"viability, T/C",[3],91.4%
same,"viability, T/C",[4],65.5%
same,"viability, T/C","second compound 0.1 µM, first compound 0.00316 µM",112%
same,"viability, T/C","second compound 0.1 µM, first compound 0.01 µM",94.6%
same,"viability, T/C",[5],82.5%
same,"viability, T/C",[6],82.7%
same,"viability, T/C",[7],77.2%
same,"viability, T/C",[8],95.6%
same,"viability, T/C","second compound 0.316 µM, first compound 0.00316 µM",102%
same,"viability, T/C","second compound 0.316 µM, first compound 0.01 µM",93.8%
same,"viability, T/C",[9],95%
same,"viability, T/C",[10],104%
same,"viability, T/C",[11],87.4%
same,"viability, T/C",[12],70.6%
same,"viability, T/C","second compound 1 µM, first compound 0.00316 µM",97.1%
same,"viability, T/C","second compound 1 µM, first compound 0.01 µM",85.9%
same,"viability, T/C",[13],92%
same,"viability, T/C",[14],95.8%
same,"viability, T/C",[15],91.3%
same,"viability, T/C",[16],66.3%
same,"viability, T/C","second compound 3.16 µM, first compound 0.00316 µM",96%
same,"viability, T/C","second compound 3.16 µM, first compound 0.01 µM",90.8%
same,"viability, T/C",[17],96.7%
same,"viability, T/C",[18],98.3%
same,"viability, T/C",[19],88.6%
same,"viability, T/C",[20],65.3%
same,"viability, T/C","second compound 10 µM, first compound 0.00316 µM",104%
same,"viability, T/C","second compound 10 µM, first compound 0.01 µM",88.9%
same,"viability, T/C",[21],102%
same,"viability, T/C",[22],87.2%
same,"viability, T/C",[23],87%
same,"viability, T/C",[24],73.4%
O=C(c1cc(Cc2n[nH]c(=O)c3ccccc23)ccc1F)N1CCN(C(=O)C2CC2)CC1 + COC1C(OC(N)=O)C(O)C(Oc2ccc3c(O)c(NC(=O)c4ccc(O)c(CC=C(C)C)c4)c(=O)oc3c2C)OC1(C)C,IC50,second compound 0.0316 µM,> 10 µM
same,IC50,second compound 0.1 µM,> 10 µM
same,IC50,second compound 0.316 µM,> 10 µM
same,IC50,second compound 1 µM,> 10 µM
same,IC50,second compound 3.16 µM,> 10 µM
same,IC50,second compound 10 µM,> 10 µM
same,"viability, T/C",[1],84.6%
same,"viability, T/C",[2],107%
same,"viability, T/C",[3],84.8%
same,"viability, T/C",[4],110%
same,"viability, T/C","second compound 0.0316 µM, first compound 3.16 µM",87.7%
same,"viability, T/C","second compound 0.0316 µM, first compound 10 µM",97.9%
same,"viability, T/C",[5],89.2%
same,"viability, T/C",[6],114%
same,"viability, T/C",[7],89.9%
same,"viability, T/C",[8],93.7%
same,"viability, T/C","second compound 0.1 µM, first compound 3.16 µM",98.6%
same,"viability, T/C","second compound 0.1 µM, first compound 10 µM",84.6%
same,"viability, T/C",[9],101%
same,"viability, T/C",[10],99.8%
same,"viability, T/C",[11],88.9%
same,"viability, T/C",[12],99.8%
same,"viability, T/C","second compound 0.316 µM, first compound 3.16 µM",93.6%
same,"viability, T/C","second compound 0.316 µM, first compound 10 µM",80%
same,"viability, T/C",[13],98.1%
same,"viability, T/C",[14],89.8%
same,"viability, T/C",[15],88.1%
same,"viability, T/C",[16],82.3%
same,"viability, T/C","second compound 1 µM, first compound 3.16 µM",83.5%
same,"viability, T/C","second compound 1 µM, first compound 10 µM",90.9%
same,"viability, T/C",[17],96.6%
same,"viability, T/C",[18],103%
same,"viability, T/C",[19],104%
same,"viability, T/C",[20],83.8%
same,"viability, T/C","second compound 3.16 µM, first compound 3.16 µM",100%
same,"viability, T/C","second compound 3.16 µM, first compound 10 µM",102%
same,"viability, T/C",[21],106%
same,"viability, T/C",[22],89.7%
same,"viability, T/C",[23],90.8%
same,"viability, T/C",[24],89.4%
same,"viability, T/C","second compound 10 µM, first compound 3.16 µM",112%
same,"viability, T/C","second compound 10 µM, first compound 10 µM",81.4%
